In test [1] the test system is acetylated alpha tubulin, HEK 293 T. Nature of the test: Immunoblot of acetylated alpha tubulin in HEK 293 T cells. Type of test: cell-based, human. The conditions noted are these: 24 h; for acetylated alpha tubulin levels: HEK 293 T. On the procedure: (§1) Human embryonic kidney cells, HEK293T, human cervical carcinoma cells, HeLa, human breast cancer cells, MDA-MB 231, human lung adenocarcinoma cellsA549, chronic myeloid leukemia cells, K562, and human colon cancer cells, HCT11, were obtained from National Centre for Cell Sciences (NCCS), Pune, India. Cell line authentication by STR analysis was performed for 10 genetic loci for all the cell lines by Life code, Genomic technologies Pvt. Ltd., and tested for mycoplasma negative by performing PCR (mycoplasma specific genes) using EZdetect PCR kit for mycoplasma detection (CCK009). All the cells were cultured in high glucose DMEM medium containing 10% foetal bovine serum and 1% Penicillin/streptomycin (Himedia). Cells were seeded in 60 mm dishes and upon attaining 80–90% confluency, treatment was given with PCI-34051(Cayman Chemicals) (10 μM/20 μM) and tubastatin (5 μM) for 24 h or both in combination (PCI-34051 and Tubastatin) and Forskolin (Sigma) (10 μM) for 45 min independently along with untreated control as described earlier.
(§2) Total, cytoplasmic and nuclear fractions of HeLa or HEK 293 T cells treated with or without PCI-34051 (20 μM), [12] tubastatin (5 μM) and/or forskolin (10 μM) were prepared as described previously. Total protein samples of HEK 293 T, HeLa, MDAMB 231, K562, A549 and HCT11 cells / immunoprecipitated HDAC8 and HDAC6 samples from both HeLa and HEK 293 T lysates / HDAC8 siRNA transfected HEK 293 T and HeLa lysates were also prepared. The proteins were separated on 10 or 12% SDS-PAGE, transferred on to nitrocellulose membrane and probed with primary antibodies of HDAC8, Beta actin, Alpha tubulin, anti-acetylated alpha tubulin, HDAC6 and GAPDH. The bands were visualized using chemiluminiscence after probing with HRP-conjugated secondary antibody.
(§3) Source for siRNA oligonucleotides were considered from with sequence, HDAC8 Sense: […] and Anti-sense: […]. The oligonucleotides were converted into siRNA by following standard protocol as described earlier. HeLa and HEK 293 T cells were transfected with HDAC8 siRNA (10–15 μg/100 mm dish) using lipofectamine 2000 (Invitrogen), and considering untransfected as control. Cells were harvested after 72 h of post-transfection and processed for total RNA and protein isolation.
For orientation: In western blotting, separated proteins are transferred to a membrane and probed.

Test [2] deals with acetylated alpha tubulin, HeLa. The test is described as follows: Immunoblot of acetylated alpha tubulin in HeLa cells. Type of test: cell-based, human. The conditions noted are these: 24 h. On the procedure:
as §1, §2, §3

Test [3] relates to HeLa cells. Nature of the test: Cell migration (wound) assay in HeLa cells. Type of test: cell-based, human. On the procedure:
HeLa cells are grown in 6 well plates in duplicates till it attains 90% confluency and starved with serum free media for overnight. Using a sterile 200 μl tip wound is created by drawing straight lines at three different points in each well. Detached cells are aspirated and washed three times with 1XPBS. Cells are treated with PCI-34051 (10 μM & 20 μM) and Paclitaxel (10 μM & 20 μM) dissolved in 2% FBS respectively along with control (untreated). Migrated cells into the wound were examined by capturing images using Olympus CKX41, ProgRes CT3 phase contrast microscope after 24 and 48 h.

The test system of test [4] is HeLa cells. The test is described as follows: Cell morphology analysis, HeLa. The conditions noted are these: 20 μM. It counts as cell-based, human. On the procedure: (§4) HeLa and HEK 293 T cells are cultured in 6 well plates till attaining 70% confluency. Cells are starved for 12 h without serum and treated with PCI-34051 (20 μM) and Paclitaxel (20 μM) along with untreated control for 24 & 48 h. Examined difference in the morphology was captured by Olympus CKX41, ProgRes CT3 phase contrast microscope at 10X focussed lens.

Test [5] concerns HEK 293 T cells. Nature of the test: Cell morphology analysis, HEK 293 T. Type of test: cell-based, human. The conditions noted are these: 20 μM, 24 & 48 h, vs control. On the procedure:
as §4

In test [6] the test system is HeLa cells. Nature of the test: Cell cycle analysis, HeLa. Type of test: cell-based, human. The note with it: PCI-34051 (20 μM), 48 h, vs untreated control. On the procedure: (§5) Cells (HeLa & HEK 293 T) were grown to attain 70% confluency and were serum starved for 12 h, followed by treatments with PCI-34051 (20 μM) and Paclitaxel (20 μM) respectively for 48 h and processed for cell cycle analysis.

The test system of test [7] is HEK 293 T cells. Nature of the test: Cell cycle analysis, HEK 293 T. The conditions noted are these: PCI-34051 (20 μM), 48 h. Type of test: cell-based, human. As for the experimental part:
as §5

Another test has as its system HDAC8. The note with it: cited from earlier work. The text has this:
The cytoplasmic localization of HDAC8 was further confirmed by immunoblot analysis using total, cytoplasmic and nuclear protein fractions of HEK 293 T and HeLa (Fig. 1d). […] With forskolin treatment, there was significant inc ... || In silico and spectroscopy based results have confirmed the interaction of HDAC8 with alpha tubulin & acetylated alpha tubulin peptide. To further validate the functional interaction we carried out IP and co-IP experiments with HDAC8 and acetylated alpha tubulin (ac-tubulin) antibodies. […] Densitometry results for the fold expression ...

In test [8] the test system is GST-HDAC8. Nature of the test: Circular dichroism binding study with GST-HDAC8. Further details: species or system human. The conditions noted are these: GST-HDAC8 (2 μM) + peptide (500 nM), 25 °C, 190-300 nm. On the procedure:
(§6) hHDAC8 (Full length) cDNA was amplified by using a polymerase chain reaction (PCR) with forward primer: 5′– […]-3′ and a reverse primer: 5’–[…]–3′. The PCR product was then sub cloned into pGEX- 6P1 plasmid. Clone was then overexpressed in Escherichia coli strain BL21 (DE3) with standardized expression conditions of 0.1 mM IPTG at 28 °C for 4 h. Induced culture pellet was lysed in 1XPBS buffer (140 mM NaCl, 2.7 mM KCl, 10 mM Na2HPO4, 1.8 mM KH2PO4) along with 1X Protease inhibitor cocktail, 1 mM PMSF, and 0.1 mM DTT. To the lysate 1% Triton X 100 is added and centrifuged for 20 min at a speed of 4000 rpm at 4 °C. Clear supernatant was used for binding with GST binding buffer (25 mM Tris pH 7.5, 300 mM NaCl, 1 mM EDTA, 1X Protease inhibitor cocktail) for 3 h on a rota spin at 4 °C. Binding was followed by collection of unbound and washes with 1X PBS (5 washes). Elutions were collected in 10 mM reduced glutathione, dissolved in 50 mM Tris pH 8.0. The purity of the protein was then analysed on SDS PAGE, followed by Western blot. Activity was then determined by HDAC activity assay.
Binding studies of GST-HDAC8 protein (2 μM) and acetylated (Lys40) or unacetylated alpha tubulin peptides (500 nM) were carried out on Jasco J-1500 (model L-1500-450) CD spectroscopy. Changes incurred in the secondary structure of GST-HDAC8 upon binding of the peptides were recorded as the mean ellipticity, with given set of parameters: start wavelength of 300 nm, end wavelength of 190 nm, scan speed of 100 nm/min, band width of 2 nm, cuvette cell size of 2 mm and at a temperature of 25 °C with two scan accumulations.

The test system of test [9] is GST-HDAC8. The test is described as follows: HPLC-based in vitro deacetylation assay with GST-HDAC8. The conditions noted are these: GST-HDAC8 (2 μM; 30 μg) + peptide (500 nM), 15 min, 37 °C, 50 mM Tris pH 7.5, 1 mM DTT, HPLC C18. It counts as biochemical, human. On the procedure: as §6
In vitro deacetylation assay of custom synthesized acetylated (Lys40) alpha tubulin was carried out on HPLC (Schimadzu) with C18 (4.6 × 250 mm) column as described earlier. […]

Data on four compounds can be found in publication PMC5930436, “Overexpressed HDAC8 in cervical cancer cells shows functional redundancy of tubulin deacetylation with HDAC6” (Cell Communication and Signaling : CCS, 2018).

Entries after “also recorded” stand apart in the source; their conditions may differ.

Turning to `CN1CCc2c(c3ccccc3n2Cc2ccc(C(=O)NO)cc2)C1` [Tubastatin], the “acetylated alpha tubulin levels, compared to PCI-34051 (20 μM) treated condition” value in test [1] (HEK 293T, tubastatin (5 μM) vs PCI-34051 (20 μM)) was “increases ac-alpha tubulin levels”. In [1] (tubastatin (5 μM), HDAC6 inhibition), the “acetylated alpha tubulin levels” value is reported as “increase in ac-alpha tubulin levels”.
Regarding `COc1ccc(Cn2ccc3ccc(C(=O)NO)cc32)cc1` [PCI-34051], the “acetylated alpha tubulin levels, compared to tubastatin treated condition” value in test [2] (PCI-34051 (20 μM) vs tubastatin) is given as “Increased ac-alpha tubulin levels”. In addition, the “acetylated alpha tubulin levels” value is “ac-alpha tubulin levels increase; also recorded: increased acetylated alpha tubulin levels; also recorded: increased the acetylation of alpha tubulin in HeLa” in [2] (PCI-34051 (20 μM)) and “no significant increase” in test [1] (PCI-34051 (20 μM)). Besides, the migration efficiency entry with HeLa cells [3] (PCI-34051 (10 μM & 20 μM), upto 48 h) is reported as “significantly decreased”. Moreover, the “migration efficiency (rank order)” value in the test with HeLa cells [3] (PCI-34051 (10 μM) or Paclitaxel (10 μM), 24 and 48 h) was “Control> > Paclitaxel>PCI-34051”. Also, the “cell size during migration assay” value in the test with HeLa cells [3] (PCI-34051, upto 48 h) was “notable decrease in cell size”. The “cell morphology effect compared with positive control” value in the test with HeLa cells [4] (HeLa (shrinkage) and HEK 293 T (clump formation)) was “quite comparable to that of paclitaxel treated condition”. Besides, in the test with HeLa cells [4] (HeLa, 24 & 48 h, vs control), the “cell morphology (cell size)” value is recorded as “reduced (shrinking) cell size; also recorded: decreased cell size (shrinking)”. Further, the “cell morphology (aggregation / clump formation)” value with HEK 293 T cells [5] is “clump formation; also recorded: cell aggregation”. The “mitotic phase of cell cycle” value was “significant (p < 0.05) reduction in mitotic phase” in the test on HeLa cells [6] and “did not show any mitotic phase reduction; also recorded: no major significant change in the mitotic phase” in the test on HEK 293 T cells [7]. In addition, in the test on HeLa cells [6], the “sub G0/G1 peak” value is recorded as “increased sub G0/G1 peak”. Besides, the “sub G0/G1 phase” value in the test on HEK 293 T cells [7] is given as “significant increase in the sub G0/G1 phase”. Further, the HDAC8 selectivity entry in the test on HDAC8 is given as “HDAC8 selective inhibitor”.
Take “DGQMPSDKTIGGGD [ac-alpha tubulin peptide, Custom synthesized peptides of alpha tubulin 33–46 amino acids, Acetylated alpha tubulin peptide, at Lys40 …]”: the “change in secondary structure of GST-HDAC8 (CD)” value in the test with GST-HDAC8 [8] was “significant change in the secondary structure of GST-HDAC8”; in the test on GST-HDAC8 [8] (listed as acetylated alpha tubulin), “change in the secondary structure of GST-HDAC8; also recorded: significant change in the secondary structure”. For the same compound, the entries for the “in vitro deacetylation by GST-HDAC8 (shift to retention time of unacetylated peptide)” value in the test on GST-HDAC8 [9] and in the test on GST-HDAC8 [9] (listed as acetylated alpha tubulin (Lys40) peptide) were “clearly demonstrates the in vitro deacetylation of ac-alpha tubulin by GST-HDAC8” and “significant peak shift in the retention time corresponding to unacetylated peptide”, respectively.
“DGQMPSDKTIGGGD [Unac-alpha tubulin peptide, Custom synthesized, Unacetylated Alpha tubulin peptide …]”: the “change in secondary structure of GST-HDAC8 (CD)” value is on record as “without any notable differences” in the test with GST-HDAC8 [8] (listed as unacetylated form) and “not observed” in the test with GST-HDAC8 [8] (listed as unacetylated tubulin).
